Tests used:
human PD-L1 = human PD-L1 (Homo sapiens (Human), UniProt Q9NZQ7); assay: T cell activation luciferase reporter cell culture system (T Cell Activation Assay); type: cell-based; details: luciferase reporter assay; PD-L1 aAPC/CHO-K1 cells with PD-1 effector Jurkat T cells
[1] = molecular target: PD-L1 His protein / PD-1 Fc protein (Homo sapiens (Human), UniProt Q9NZQ7); assay: HTRF Assay (PD-1/PD-L1 interaction); type: binding; details: PD-L1 His 6 nM, PD-1 Fc 6 nM
Sequence of PD-L1 His protein / PD-1 Fc protein (Q9NZQ7 19-238): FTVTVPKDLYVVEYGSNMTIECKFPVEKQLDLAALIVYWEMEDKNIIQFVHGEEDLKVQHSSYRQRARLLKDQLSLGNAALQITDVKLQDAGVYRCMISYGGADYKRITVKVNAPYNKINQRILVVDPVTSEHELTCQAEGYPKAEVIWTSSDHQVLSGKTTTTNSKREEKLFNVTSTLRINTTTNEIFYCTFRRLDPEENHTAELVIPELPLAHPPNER

Sequence of human PD-L1 (Q9NZQ7 19-290): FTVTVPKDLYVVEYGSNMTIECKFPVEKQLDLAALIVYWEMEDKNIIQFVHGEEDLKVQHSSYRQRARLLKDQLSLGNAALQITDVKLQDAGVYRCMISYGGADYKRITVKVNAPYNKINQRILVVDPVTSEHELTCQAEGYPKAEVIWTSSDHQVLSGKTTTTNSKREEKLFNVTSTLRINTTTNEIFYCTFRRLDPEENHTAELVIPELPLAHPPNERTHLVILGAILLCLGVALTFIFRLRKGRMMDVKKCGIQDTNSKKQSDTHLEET

SMILES	EC50 (human PD-L1) [nM]	IC50 [1] [nM]
COc1cc(-c2nccc(-c3cccc(-c4ccc(CN[C@H]5CC[C@H](OC)CC5)c(OC)n4)c3Cl)c2Cl)ccc1CN[C@H]1CC[C@H](OC)CC1 [Example 450, (1r,4r)-N-((6-(2-Chloro-3-(3-chloro-2-(3-methoxy-4-((((1r,4r)-4-methoxycyclohexyl)amino)methyl)phenyl)pyridin-4-yl)phenyl)-2-methoxypyridin-3-yl)methyl)-4-methoxycyclohexan-1-amine]	54.7	2.36
COc1cc(-c2nccc(-c3cccc(-c4ccc(CNC5CCOCC5)c(OC)n4)c3F)c2F)ccc1CNC1CCOCC1 [Example 452, N-((6-(2-Fluoro-3-(3-fluoro-2-(3-methoxy-4-(((tetrahydro-2H-pyran-4-yl)amino)methyl)phenyl)pyridin-4-yl)phenyl)-2-methoxypyridin-3-yl)methyl)tetrahydro-2H-pyran-4-amine]	≥ 10000	22.6
COc1cc(-c2nccc(-c3cccc(-c4ccc(CNC5CCN(C(C)=O)CC5)c(OC)n4)c3Cl)c2Cl)ccc1CN1CCOCC1 [Example 458, 1-(4-(((6-(2-Chloro-3-(3-chloro-2-(3-methoxy-4-(morpholinomethyl)phenyl)pyridin-4-yl)phenyl)-2-methoxypyridin-3-yl)methyl)amino)piperidin-1-yl)ethan-1-one]	82.6	24.6
COc1cc(-c2nccc(-c3cccc(-c4ccc(CNC5CCOCC5)c(OC)n4)c3Cl)c2C)ccc1CNC1CCOCC1 [Example 462, N-((6-(2-chloro-3-(2-(3-methoxy-4-(((tetrahydro-2H-pyran-4-yl)amino)methyl)phenyl)-3-methylpyridin-4-yl)phenyl)-2-methoxypyridin-3-yl)methyl)tetrahydro-2H-pyran-4-amine]	178	6.78
COc1cc(-c2nccc(-c3cccc(-c4ccc(CN5CC6(CCOCC6)C5)c(OC)n4)c3Cl)c2Cl)ccc1CN1CC2(CCOCC2)C1 [Example 470, 2-((6-(3-(2-(4-((7-Oxa-2-azaspiro[3.5]nonan-2-yl)methyl)-3-methoxyphenyl)-3-chloropyridin-4-yl)-2-chlorophenyl)-2-methoxypyridin-3-yl)methyl)-7-oxa-2-azaspiro[3.5]nonane]	190	19.3
COc1cc(-c2nccc(-c3cccc(-c4ccc(CN5CC(C(C)(C)O)C5)c(OC)n4)c3Cl)c2Cl)ccc1CN1CC(C(C)(C)O)C1 [Example 471, 2-(1-((6-(2-Chloro-3-(3-chloro-2-(4-((3-(2-hydroxypropan-2-yl)azetidin-1-yl)methyl)-3-methoxyphenyl)pyridin-4-yl)phenyl)-2-methoxypyridin-3-yl)methyl)azetidin-3-yl)propan-2-ol]	111	4.63
COc1cc(-c2nccc(-c3cccc(-c4ccc(CN(C)C[C@H]5CNC(=O)C5)c(OC)n4)c3Cl)c2Cl)ccc1CN(C)C[C@H]1CNC(=O)C1 [Example 473, (R)-4-((((6-(2-Chloro-3-(3-chloro-2-(3-methoxy-4-((methyl(((R)-5-oxopyrrolidin-3-yl)methyl)amino)methyl)phenyl)pyridin-4-yl)phenyl)-2-methoxypyridin-3-yl)methyl)(methyl)amino)methyl)pyrrolidin-2-one]	≥ 10000	16.9
COc1nc(-c2cccc(-c3ccnc(-c4cc(OC)c5nc(CN6CC(C)(C#N)C6)cn5c4)c3Cl)c2Cl)ccc1CNC1CCN(C(C)=O)CC1 [Example 477, 1-((6-(4-(3-(5-(((1-Acetylpiperidin-4-yl)amino)methyl)-6-methoxypyridin-2-yl)-2-chlorophenyl)-3-chloropyridin-2-yl)-8-methoxyimidazo[1,2-a]pyridin-2-yl)methyl)-3-methylazetidine-3-carbonitrile]	7480	21.4
COc1nc(-c2cccc(-c3ccnc(-c4cc(OC)c5nc(CNCC(F)F)cn5c4)c3Cl)c2Cl)ccc1CNC1CCN(C(C)=O)CC1 [Example 478, 1-(4-(((6-(2-Chloro-3-(3-chloro-2-(2-(((2,2-difluoroethyl)amino)methyl)-8-methoxyimidazo[1,2-a]pyridin-6-yl)pyridin-4-yl)phenyl)-2-methoxypyridin-3-yl)methyl)amino)piperidin-1-yl)ethan-1-one]	≥ 10000	43.9
COc1cc(-c2nccc(-c3cccc(-c4ccc(CNC5CCN(C(C)=O)CC5)c(OC)n4)c3Cl)c2Cl)cc2c1CN(C1CCN(CC(=O)O)C1=O)CC2 (stereo not drawn) [Example 480, 2-(3-(6-(4-(3-(5-(((1-Acetylpiperidin-4-yl)amino)methyl)-6-methoxypyridin-2-yl)-2-chlorophenyl)-3-chloropyridin-2-yl)-8-methoxy-3,4-dihydroisoquinolin-2(1H)-yl)-2-oxopyrrolidin-1-yl)acetic acid]	1490	3.9
COc1cc(-c2nccc(-c3cccc(-c4ccc(CN5CC6(C5)CN(C(C)=O)C6)c(OC)n4)c3Cl)c2Cl)ccc1CNC1CCN(C(C)=O)CC1 [Example 483, 1-(4-((4-(4-(3-(5-((6-acetyl-2,6-diazaspiro[3.3]heptan-2-yl)methyl)-6-methoxypyridin-2-yl)-2-chlorophenyl)-3-chloropyridin-2-yl)-2-methoxybenzyl)amino)piperidin-1-yl)ethan-1-one]	39.7	2.63
COc1cc(-c2nccc(-c3cccc(-c4ccc(CN5CC6(CNC(=O)C6)C5)c(OC)n4)c3Cl)c2Cl)ccc1CN1CC2(C1)CN(C(C)=O)C2 [Example 493, 2-((6-(3-(2-(4-((6-Acetyl-2,6-diazaspiro[3.3]heptan-2-yl)methyl)-3-methoxyphenyl)-3-chloropyridin-4-yl)-2-chlorophenyl)-2-methoxypyridin-3-yl)methyl)-2,6-diazaspiro[3.4]octan-7-one]	19.2	0.76
COc1cc(-c2nccc(-c3cccc(-c4ccc(CN5CC6(CNC(=O)C6)C5)c(OC)n4)c3Cl)c2Cl)ccc1CN1CC2(CNC2)C1 [Example 494, 2-((6-(3-(2-(4-((2,6-Diazaspiro[3.3]heptan-2-yl)methyl)-3-methoxyphenyl)-3-chloropyridin-4-yl)-2-chlorophenyl)-2-methoxypyridin-3-yl)methyl)-2,6-diazaspiro[3.4]-octan-7-one]	61.7	5.21
COc1cc(-c2nccc(-c3cccc(-c4ccc(CN(C)CC5CN(C(C)=O)C5)c(OC)n4)c3Cl)c2Cl)ccc1CN(C)CC1CN(C(C)=O)C1 [Example 499, 1-(3-((((6-(3-(2-(4-((((1-Acetylazetidin-3-yl)methyl)(methyl)amino)methyl)-3-methoxyphenyl)-3-chloropyridin-4-yl)-2-chlorophenyl)-2-methoxypyridin-3-yl)methyl)(methyl)amino)methyl)azetidin-1-yl)ethan-1-one]	88.5	2.07
COCC1CCN(Cc2ccc(-c3nccc(-c4cccc(-c5ccc(CNC6CCN(C(C)=O)CC6)c(OC)n5)c4Cl)c3Cl)cc2OC)CC1 [Example 509, 1-(4-(((6-(2-Chloro-3-(3-chloro-2-(3-methoxy-4-((4-(methoxymethyl)piperidin-1-yl)methyl)phenyl)pyridin-4-yl)phenyl)-2-methoxypyridin-3-yl)methyl)amino)piperidin-1-yl)ethan-1-one]	100	9.77
